# Laboratory results: patent US8669271B2 (Boehringer Ingelheim International GmbH, priority 2010, dated 2014)
# Biological target: T1, human GPR119 (Homo sapiens, UniProt Q8TDV5)
# T1 construct: expression vector for human GPR119 cDNA (Acc. No. NP_848566); expressed in transfected cells
# T1 sequence (Q8TDV5 1-335): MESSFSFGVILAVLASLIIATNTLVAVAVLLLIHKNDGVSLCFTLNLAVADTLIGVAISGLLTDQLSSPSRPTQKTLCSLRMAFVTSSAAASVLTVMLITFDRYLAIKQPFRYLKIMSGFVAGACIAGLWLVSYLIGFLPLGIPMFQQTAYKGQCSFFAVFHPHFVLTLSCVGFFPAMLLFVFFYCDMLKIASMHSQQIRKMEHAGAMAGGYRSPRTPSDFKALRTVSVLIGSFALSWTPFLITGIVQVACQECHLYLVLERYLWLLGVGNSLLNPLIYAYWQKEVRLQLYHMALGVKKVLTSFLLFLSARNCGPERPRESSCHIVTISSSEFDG
# Experiment: AlphaScreen cAMP assay in Min-6/hGPR119 cells (activation of GPR119, intracellular cAMP)
# Format: cell-based
# Settings: MIN6 cells stably transfected with human GPR119; cAMP by AlphaScreen after 45 minutes incubation at room temperature
# Method: The compounds of formula I according to the invention modulate the activity of the G-protein-coupled receptor GPR119. The effect of the compounds on the activation of GPR119 and on the stimulation of intracellular cAMP concentration is determined using the AlphaScreen cAMP Assay Kit (Cat.No.#6760625R) made by PerkinElmer.
# MIN6 cells [Miyazaki J et al. Endocrinology. 1990 July; 127(1):126-32] are stably transfected with an expression vector for human GPR119 cDNA (Acc. No. NP_848566). Min-6/hGPR119 cells are cultured in DMEM, 10% FBS, 50 μM β-mercaptoethanol, 0.3 mg/mL Geniticin, 2 mM GlutaMAX at 37° C. 5% CO2. For the assay, the cells are seeded in Optiplates (white, 384-well, 160W— barcoded, TC, sterile with lid, Cat.No.#6007688 (Perkin Elmer); 10000 cells/well; 50 μl). The plates covered with lids are then incubated for 24 hours at 37° C./5% CO2. After the medium is aspirated from the wells completely, 10 μl of the test compound are added, the compounds are diluted using stimulating buffer (140 mM NaCl, 3.6 mM KCl, 0.5 mM NaH2PO4, 0.5 mM MgSO4, 1.5 mM CaCl2, 10 mM Hepes, 5 mM NaHCO3; pH 7.4. 0.5 mM IBMX and 0.1% BSA, the final DMSO concentration is 1%). After 45 minutes incubation at room temperature (approx. 20° C.), the cAMP concentrations are determined using the AlphaScreen cAMP Assay Kit (Cat.No.#6760625R from PerkinElmer).
row,EC50 [nM],Structure (SMILES)
1,9,"CC(C)(C)OC(=O)N1CCC(C2Cc3cc(-c4ccc(S(C)(=O)=O)cc4)ncc3O2)CC1 (stereo not shown) [Example 15, 4-[5-(4-Methanesulfonyl-phenyl)-2,3-dihydro-furo[2,3-c]pyridin-2-yl]-piperidine-1-carboxylic acid tert-butyl ester]"
2,186,"CC(C)OC(=O)N1CCC(C2Cc3cc(-c4cncnc4)ccc3O2)CC1 (stereo not shown) [Example 16, 4-(5-Pyrimidin-5-yl-2,3-dihydro-benzofuran-2-yl)-piperidine-1-carboxylic acid isopropyl ester]"
3,46,"CC1(OC(=O)N2CCC(C3Cc4cc(-c5ccc(S(C)(=O)=O)cc5)ccc4O3)CC2)CC1 (stereo not shown) [Example 17, 4-[5-(4-Methanesulfonyl-phenyl)-2,3-dihydro-benzofuran-2-yl]-piperidine-1-carboxylic acid 1-methyl-cyclopropyl ester]"
4,147,"Cc1nc(S(C)(=O)=O)ccc1-c1ccc2c(c1)CC(C1CCN(C(=O)OC(C)C)CC1)O2 (stereo not shown) [Example 18, 4-[5-(6-Methanesulfonyl-2-methyl-pyridin-3-yl)-2,3-dihydro-benzofuran-2-yl]-piperidine-1-carboxylic acid isopropyl ester]"
5,1000,"Cc1cc(S(C)(=O)=O)ncc1-c1ccc2c(c1)CC(C1CCN(C(=O)OC(C)C)CC1)O2 (stereo not shown) [Example 19, 4-[5-(6-Methanesulfonyl-4-methyl-pyridin-3-yl)-2,3-dihydro-benzofuran-2-yl]-piperidine-1-carboxylic acid isopropyl ester]"
6,17,"CC1(OC(=O)N2CCC(C3Cc4cc(-c5ccc(S(C)(=O)=O)cc5)ncc4O3)CC2)CC1 (stereo not shown) [Example 20, 4-[5-(4-Methanesulfonyl-phenyl)-2,3-dihydro-furo[2,3-c]pyridin-2-yl]-piperidine-1-carboxylic acid 1-methyl-cyclopropyl ester]"
7,77,"CC(C)(C)OC(=O)N1CCC(C2Cc3cc(-c4cnco4)ccc3O2)CC1 (stereo not shown) [Example 21, 4-(5-Oxazol-5-yl-2,3-dihydro-benzofuran-2-yl)-piperidine-1-carboxylic acid tert-butyl ester]"
8,45,"CC(C)(C)OC(=O)N1CCC(C2Cc3nc(-c4ccc(S(C)(=O)=O)cc4)ncc3O2)CC1 (stereo not shown) [Example 22, 4-[2-(4-Methanesulfonyl-phenyl)-6,7-dihydro-furo[3,2-d]pyrimidin-6-yl]-piperidine-1-carboxylic acid tert-butyl ester]"
9,18,"CC(C)(C)OC(=O)N1CCC(C2Cc3cc(-c4ccc(S(C)(=O)=O)cc4F)ncc3O2)CC1 (stereo not shown) [Example 23, 4-[5-(2-Fluoro-4-methanesulfonyl-phenyl)-2,3-dihydro-furo[2,3-c]pyridin-2-yl]-piperidine-1-carboxylic acid tert-butyl ester]"
10,17,"CS(=O)(=O)c1ccc(-c2cc3c(cn2)OC(C2CCN(C(=O)OC4CCC4)CC2)C3)cc1 (stereo not shown) [Example 24, 4-[5-(4-Methanesulfonyl-phenyl)-2,3-dihydro-furo[2,3-c]pyridin-2-yl]-piperidine-1-carboxylic acid cyclobutyl ester]"
11,88,"CC(C)(C)OC(=O)N1CCC(C2Cc3cc(-c4ccc(C(N)=O)cc4F)ncc3O2)CC1 (stereo not shown) [Example 26, 4-[5-(4-Carbamoyl-2-fluoro-phenyl)-2,3-dihydro-furo[2,3-c]pyridin-2-yl]-piperidine-1-carboxylic acid tert-butyl ester]"
12,24,"CNC(=O)c1ccc(-c2cc3c(cn2)OC(C2CCN(C(=O)OC(C)(C)C)CC2)C3)c(F)c1 (stereo not shown) [Example 27, 4-[5-(2-Fluoro-4-methylcarbamoyl-phenyl)-2,3-dihydro-furo[2,3-c]pyridin-2-yl]-piperidine-1-carboxylic acid tert-butyl ester]"
13,23,"CC(C)(C)OC(=O)N1CCC(C2Cc3cc(-c4ccc(C#N)c(F)c4)ncc3O2)CC1 (stereo not shown) [Example 28, 4-[5-(4-Cyano-3-fluoro-phenyl)-2,3-dihydro-furo[2,3-c]hyridin-2-yl]-piperidine-1-carboxylic acid tert-butyl ester]"
14,12,"CC(C)(C)OC(=O)N1CCC(C2Cc3cc(-c4ccc(C#N)cc4F)ncc3O2)CC1 (stereo not shown) [Example 29, 4-[5-(4-Cyano-2-fluoro-phenyl)-2,3-dihydro-furo[2,3-c]pyridin-2-yl]-piperidine-1-carboxylic acid tert-butyl ester]"
15,84,"CC(C)(C)OC(=O)N1CCC(C2Cc3cc(-c4ccc(S(N)(=O)=O)cc4)ncc3O2)CC1 (stereo not shown) [Example 30, 4-[5-(4-Sulfamoyl-phenyl)-2,3-dihydro-furo[2,3-c]pyridin-2-yl]-piperidine-1-carboxylic acid tert-butyl ester]"
16,39,"CC(C)(C)OC(=O)N1CCC(C2Cc3cc(-c4ccc(CC#N)cc4)ncc3O2)CC1 (stereo not shown) [Example 31, 4-[5-(4-Cyanomethyl-phenyl)-2,3-dihydro-furo[2,3-c]pyridin-2-yl]-piperidine-1-carboxylic acid tert-butyl ester]"
17,21,"CCNC(=O)c1ccc(-c2cc3c(cn2)OC(C2CCN(C(=O)OC(C)(C)C)CC2)C3)cc1 (stereo not shown) [Example 32, 4-[5-(4-Ethylcarbamoyl-phenyl)-2,3-dihydro-furo[2,3-c]pyridin-2-yl]-piperidine-1-carboxylic acid tert-butyl ester]"
18,190,"CC(C)(C)OC(=O)N1CCC(C2Cc3cc(-c4cncnc4)ncc3O2)CC1 (stereo not shown) [Example 33, 4-(5-Pyrimidin-5-yl-2,3-dihydro-furo[2,3-c]pyridin-2-yl)-piperidine-1-carboxylic acid tert-butyl ester]"
19,9,"CC(C)(C)OC(=O)N1CCC(C2Cc3cc(-c4ccc(S(C)(=O)=O)c(F)c4)ncc3O2)CC1 (stereo not shown) [Example 34, 4-[5-(3-Fluoro-4-methanesulfonyl-phenyl)-2,3-dihydro-furo[2,3-c]pyridin-2-yl]-piperidine-1-carboxylic acid tert-butyl ester]"
20,17,"CC(C)(C)OC(=O)N1CCC(C2Cc3cc(-c4ccc(CS(C)(=O)=O)cc4F)ncc3O2)CC1 (stereo not shown) [Example 35, 4-[5-(2-Fluoro-4-methanesulfonylmethyl-phenyl)-2,3-dihydro-furo[2,3-c]pyridin-2-yl]-piperidine-1-carboxylic acid tert-butyl ester]"
21,33,"CNS(=O)(=O)c1ccc(-c2cc3c(cn2)OC(C2CCN(C(=O)OC(C)(C)C)CC2)C3)cc1 (stereo not shown) [Example 36, 4-[5-(4-Methylsulfamoyl-phenyl)-2,3-dihydro-furo[2,3-c]pyridin-2-yl]-piperidine-1-carboxylic acid tert-butyl ester]"
22,31,"CC(C)(C)OC(=O)N1CCC(C2Cc3cc(-c4ccc(NS(C)(=O)=O)cc4)ncc3O2)CC1 (stereo not shown) [Example 37, 4-[5-(4-Methanesulfonylamino-phenyl)-2,3-dihydro-furo[2,3-c]pyridin-2-yl]-piperidine-1-carboxylic acid tert-butyl ester]"
23,573,"Cc1noc(C)c1-c1cc2c(cn1)OC(C1CCN(C(=O)OC(C)(C)C)CC1)C2 (stereo not shown) [Example 38, 4-[5-(3,5-Dimethyl-isoxazol-4-yl)-2,3-dihydro-furo[2,3-c]pyridin-2-yl]-piperidine-1-carboxylic acid tert-butyl ester]"
24,152,"CC(C)(C)OC(=O)N1CCC(C2Cc3cc(-c4cnco4)ncc3O2)CC1 (stereo not shown) [Example 39, 4-(5-Oxazol-5-yl-2,3-dihydro-furo[2,3-c]pyridin-2-yl)-piperidine-1-carboxylic acid tert-butyl ester]"
25,158,"CC(C)(C)OC(=O)N1CCC(C2Cc3cc(-c4ccc(C(N)=O)cn4)ccc3O2)CC1 (stereo not shown) [Example 40, 4-[5-(5-Carbamoyl-pyridin-2-yl)-2,3-dihydro-benzofuran-2-yl]-piperidine-1-carboxylic acid tert-butyl ester]"
26,34,"CC(C)(C)OC(=O)N1CCC(C2Cc3cc(-c4ccncc4)ncc3O2)CC1 (stereo not shown) [Example 41, 4-(5-Pyridin-4-yl-2,3-dihydro-furo[2,3-c]pyridin-2-yl)-piperidine-1-carboxylic acid tert-butyl ester]"
27,64,"CNC(=O)c1ccc(-c2ccc3c(c2)CC(C2CCN(C(=O)OC(C)(C)C)CC2)O3)nc1 (stereo not shown) [Example 42, 4-[5-(5-Methylcarbamoyl-pyridin-2-yl)-2,3-dihydro-benzofuran-2-yl]-piperidine-1-carboxylic acid tert-butyl ester]"
28,269,"CC(C)(C)OC(=O)N1CCC(C2Cc3cc(-c4ccncc4C#N)ccc3O2)CC1 (stereo not shown) [Example 43, 4-[5-(3-Cyano-pyridin-4-yl)-2,3-dihydro-benzofuran-2-yl]-piperidine-1-carboxylic acid tert-butyl ester]"
